System: patients chronically infected with HBV
Assay: 4-week clinical treatment combining weekly sub-cutaneous pegylated IFNα2a (PEG-IFN) with daily oral EYP001a or placebo: treatment emergent adverse events
Settings: compared with Placebo + IFN; significant differences (Table 2)

SMILES: O=C(O)c1cc2c(Cl)c(N3CCN(S(=O)(=O)c4c(Cl)cccc4Cl)CC3)ccc2o1 [EYP001a]
- frequency of flu-like AE when IFN treatment was combined with EYP001: lower up to three times less
